Results on 4 compounds are retold here after ChEMBL document CHEMBL5244201, “Non-covalent albumin-binding ligands for extending the circulating half-life of small biotherapeutics” (Medchemcomm, 2019).

As usually defined, the Kd is the constant that tells how readily two partners part at equilibrium.

The target of data set [1] is T1, Albumin (Homo sapiens, UniProt P02768). The experiment in a line: Binding affinity to human serum albumin by fluorescence polarization assay. (Fluorescence polarisation rises when a labelled molecule tumbles more slowly, as on binding a larger partner.)
T1 sequence (P02768 whole entry): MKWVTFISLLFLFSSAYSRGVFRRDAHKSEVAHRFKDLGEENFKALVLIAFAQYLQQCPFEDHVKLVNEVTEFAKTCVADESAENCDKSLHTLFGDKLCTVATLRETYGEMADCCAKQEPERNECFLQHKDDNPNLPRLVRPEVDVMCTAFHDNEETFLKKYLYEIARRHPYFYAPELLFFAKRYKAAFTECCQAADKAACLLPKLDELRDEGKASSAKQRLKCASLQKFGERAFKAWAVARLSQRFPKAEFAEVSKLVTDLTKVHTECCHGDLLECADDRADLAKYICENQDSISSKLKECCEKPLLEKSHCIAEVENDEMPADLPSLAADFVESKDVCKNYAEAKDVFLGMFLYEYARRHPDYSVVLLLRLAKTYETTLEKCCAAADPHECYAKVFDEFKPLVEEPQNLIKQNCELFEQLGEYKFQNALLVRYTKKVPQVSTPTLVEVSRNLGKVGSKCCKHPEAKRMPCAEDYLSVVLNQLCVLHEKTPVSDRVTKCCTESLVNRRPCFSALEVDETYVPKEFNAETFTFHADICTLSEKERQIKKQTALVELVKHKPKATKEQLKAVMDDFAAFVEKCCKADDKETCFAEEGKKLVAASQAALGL
Another data set is filed under the species Macaca fascicularis. The experiment in a line: Terminal half life in monkey. Conditions: cynomolgus monkey, in vivo; read-out: beta t1/2 (converted).
Data set [2] has as its target T1, Albumin. The experiment in a line: Binding affinity to human albumin assessed as dissociation constant.
The target of data set [3] is T1, Albumin. Briefly: Binding affinity to human albumin.
The target in data set [4] is T2, Albumin (Mus musculus, UniProt P07724). The experiment in a line: Binding affinity to mouse albumin.
T2 sequence (P07724 whole entry): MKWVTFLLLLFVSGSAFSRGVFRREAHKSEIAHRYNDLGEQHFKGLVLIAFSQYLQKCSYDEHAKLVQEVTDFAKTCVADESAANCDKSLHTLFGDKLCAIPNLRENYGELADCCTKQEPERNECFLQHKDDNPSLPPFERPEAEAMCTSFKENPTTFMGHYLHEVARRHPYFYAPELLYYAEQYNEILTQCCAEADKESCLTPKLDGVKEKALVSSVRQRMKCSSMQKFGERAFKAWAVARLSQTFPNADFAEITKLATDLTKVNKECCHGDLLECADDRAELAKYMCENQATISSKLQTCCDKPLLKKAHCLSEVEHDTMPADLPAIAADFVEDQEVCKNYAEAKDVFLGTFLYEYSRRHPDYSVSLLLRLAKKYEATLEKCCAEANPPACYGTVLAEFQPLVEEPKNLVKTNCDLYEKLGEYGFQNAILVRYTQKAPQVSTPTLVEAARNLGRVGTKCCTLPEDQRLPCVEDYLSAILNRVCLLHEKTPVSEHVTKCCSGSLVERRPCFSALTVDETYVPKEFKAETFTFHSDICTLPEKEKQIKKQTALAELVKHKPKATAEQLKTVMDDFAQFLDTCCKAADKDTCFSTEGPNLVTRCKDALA
The nature of data set [5]: Terminal half life in iv dosed mouse. Type of data set: ADME, organism-based. The following applies: in vivo, read-out: beta t1/2 (converted).
Data set [6] has as its target T2, Albumin. Briefly: Binding affinity to mouse albumin assessed as dissociation constant by fluorescence polarization assay.
The target of data set [7] is T1, Albumin. The experiment in a line: Binding affinity to human albumin assessed as dissociation constant by fluorescence polarization assay.
For data set [8], the target named is T1, Albumin. The experiment in a line: Binding affinity to human albumin assessed as dissociation constant by ITC method. For orientation: ITC needs no label: the signal is the heat of the interaction.

On Albumin [1], `Cc1cccc(OCc2cn(CCCC[C@@H]3NC(=O)CNC(=O)[C@@H]4CCCN4C(=O)[C@H](CCCCNC(=O)c4cnc(N5CCOCC5)c(N)c4)NC(=O)[C@H](CCCCNC(=S)Nc4ccc5c(c4)C(=O)OC54c5ccc(O)cc5Oc5cc(O)ccc54)NC(=O)[C@H](C)NC(=O)CNC(=O)[C@@H]4CCCN4C(=O)[C@H](CCCCNC(=O)c4cccc(Oc5ccccc5)c4)NC(=O)[C@H](C)NC3=O)nn2)n1` came in with a Kd of 6.6 µM.
For Ac-WWEQDRDWDFDVFGGGTP-NH2, the half-life in the data set filed under Macaca fascicularis is 31.2 h. At Albumin [2], the Kd came to 0.015 µM.
Turning to `O=C(CCCc1ccc(I)cc1)NCCCCC(NC(=O)c1ccc2c(c1)C(=O)OC21c2ccc(O)cc2Oc2cc(O)ccc21)C(=O)O` (stereo not given), the Kd turned out to be 3.2 µM at Albumin [3] and 3.6 µM on Albumin [4]. Moreover, the half-life in data set [5] is 16.6 h.
For `O=C(CCCc1ccc(I)cc1)NCCCC[C@@H](NC(=O)c1ccc(-c2c3ccc(=O)cc-3oc3cc(O)ccc23)c(C(=O)O)c1)C(=O)O`, the dissociation constant (Kd) at Albumin [6] came to 0.118 µM; at Albumin [7], 0.108 µM; at Albumin [8], 0.33 µM. For the same compound, the half-life in data set [5] is 8.25 h.
